System: 519858-162-T-J1-PDC complex spheroid viability
Test: Anticancer human tumor 519858-162-T-J1-PDC patient-derived colon adenocarcinoma cell line growth inhibition [GQUAD]
Conditions: for IC50: curve of first compound; for viability, T/C: stronger effect = lower value; active = viability on the fitted dose curve at most 10% of control; inactive = the rest
Procedure, shortened: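 Multi-cell-type spheroids of tumor cells with HUVEC and mesenchymal stem cells, treated with drug combinations. Concentrations descend in half-log steps from near clinical Cmax, or from 10 microM where Cmax is unknown; viability read-out.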

[1] = second compound 0.0316 µM, first compound 0.0316 µM
[2] = second compound 0.0316 µM, first compound 0.1 µM
[3] = second compound 0.0316 µM, first compound 0.316 µM
[4] = second compound 0.0316 µM, first compound 1 µM
[5] = second compound 0.0316 µM, first compound 3.16 µM
[6] = second compound 0.0316 µM, first compound 10 µM
[7] = second compound 0.1 µM, first compound 0.0316 µM
[8] = second compound 0.1 µM, first compound 0.1 µM
[9] = second compound 0.1 µM, first compound 0.316 µM
[10] = second compound 0.1 µM, first compound 1 µM
[11] = second compound 0.1 µM, first compound 3.16 µM
[12] = second compound 0.1 µM, first compound 10 µM
[13] = second compound 0.316 µM, first compound 0.0316 µM
[14] = second compound 0.316 µM, first compound 0.1 µM
[15] = second compound 0.316 µM, first compound 0.316 µM
[16] = second compound 0.316 µM, first compound 1 µM
[17] = second compound 0.316 µM, first compound 3.16 µM
[18] = second compound 0.316 µM, first compound 10 µM
[19] = second compound 1 µM, first compound 0.0316 µM
[20] = second compound 1 µM, first compound 0.1 µM
[21] = second compound 1 µM, first compound 0.316 µM
[22] = second compound 1 µM, first compound 1 µM
[23] = second compound 1 µM, first compound 3.16 µM
[24] = second compound 1 µM, first compound 10 µM
[25] = second compound 3.16 µM, first compound 0.0316 µM
[26] = second compound 3.16 µM, first compound 0.1 µM
[27] = second compound 3.16 µM, first compound 0.316 µM
[28] = second compound 3.16 µM, first compound 1 µM
[29] = second compound 3.16 µM, first compound 3.16 µM
[30] = second compound 3.16 µM, first compound 10 µM
[31] = second compound 10 µM, first compound 0.0316 µM
[32] = second compound 10 µM, first compound 0.1 µM
[33] = second compound 10 µM, first compound 0.316 µM
[34] = second compound 10 µM, first compound 1 µM
[35] = second compound 10 µM, first compound 3.16 µM
[36] = second compound 10 µM, first compound 10 µM
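Also: spheroids exposed to compounds for 7 days.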
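For viability, T/C in this document: 100% = DMSO vehicle control viability.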

CC1COCCN1c1cc(-c2ccnn2C)c2ccnc(-c3ccn[nH]3)c2n1 (stereo not drawn) + CN(C)c1ccc(Nc2c3ccc(NC(=O)CCN4CCCC4)cc3nc3cc(NC(=O)CCN4CCCC4)ccc23)cc1
7.09 µM: IC50 (second compound 0.316 µM)
4.46 µM: IC50 (second compound 10 µM)
inactive: viability, T/C [1] 87.2% | viability, T/C [2] 125% | viability, T/C [3] 88% | viability, T/C [4] 101% | viability, T/C [5] 54% | viability, T/C [6] 38% | viability, T/C [7] 78.2% | viability, T/C [8] 106% | viability, T/C [9] 86.4% | viability, T/C [10] 124% | viability, T/C [11] 55.4% | viability, T/C [12] 36.1% | viability, T/C [13] 91.3% | viability, T/C [14] 86.8% | viability, T/C [15] 79.3% | viability, T/C [16] 101% | viability, T/C [17] 79.6% | viability, T/C [18] 37.4% | viability, T/C [19] 100% | viability, T/C [20] 85.7% | viability, T/C [21] 73.8% | viability, T/C [22] 102% | viability, T/C [23] 63.4% | viability, T/C [24] 25.3% | viability, T/C [25] 87.5% | viability, T/C [26] 83.9% | viability, T/C [27] 106% | viability, T/C [28] 92.4% | viability, T/C [29] 58.7% | viability, T/C [30] 39.5% | viability, T/C [31] 71.2% | viability, T/C [32] 101% | viability, T/C [33] 73.5% | viability, T/C [34] 100% | viability, T/C [35] 51.1% | viability, T/C [36] 47.3%
4.24 µM: IC50 (second compound 0.0316 µM)
5.33 µM: IC50 (second compound 3.16 µM)
4.35 µM: IC50 (second compound 0.1 µM)
4.74 µM: IC50 (second compound 1 µM)

CC(=O)O[C@H]1C(=O)[C@@]2(C)[C@H]([C@H](OC(=O)c3ccccc3)[C@]3(O)C[C@H](OC(=O)[C@H](O)[C@@H](NC(=O)c4ccccc4)c4ccccc4)C(C)=C1C3(C)C)[C@]1(OC(C)=O)CO[C@@H]1C[C@@H]2O + CN(C)c1ccc(Nc2c3ccc(NC(=O)CCN4CCCC4)cc3nc3cc(NC(=O)CCN4CCCC4)ccc23)cc1
> 10 µM: IC50 (second compound 0.0316 µM) | IC50 (second compound 0.1 µM) | IC50 (second compound 0.316 µM) | IC50 (second compound 1 µM) | IC50 (second compound 3.16 µM) | IC50 (second compound 10 µM)
inactive: viability, T/C [1] 84.6% | viability, T/C [2] 95.5% | viability, T/C [3] 137% | viability, T/C [4] 86.5% | viability, T/C [5] 61.9% | viability, T/C [6] 119% | viability, T/C [7] 74.1% | viability, T/C [8] 134% | viability, T/C [9] 89.5% | viability, T/C [10] 82% | viability, T/C [11] 111% | viability, T/C [12] 98.4% | viability, T/C [13] 89.7% | viability, T/C [14] 86.5% | viability, T/C [15] 96.8% | viability, T/C [16] 69.7% | viability, T/C [17] 92% | viability, T/C [18] 115% | viability, T/C [19] 87.4% | viability, T/C [20] 74.9% | viability, T/C [21] 70.7% | viability, T/C [22] 64.5% | viability, T/C [23] 84.8% | viability, T/C [24] 86.3% | viability, T/C [25] 79.1% | viability, T/C [26] 68.1% | viability, T/C [27] 70.8% | viability, T/C [28] 55.3% | viability, T/C [29] 75.9% | viability, T/C [30] 84.6% | viability, T/C [31] 68.2% | viability, T/C [32] 62.4% | viability, T/C [33] 63.9% | viability, T/C [34] 55.1% | viability, T/C [35] 80.3% | viability, T/C [36] 72.7%

COc1cccc2c1C(=O)c1c(O)c3c(c(O)c1C2=O)CC(O)(C(=O)CO)CC3OC1CC(N)C(O)C(C)O1 (stereo not drawn) + Cc1[nH]c2ccc(F)cc2c1-c1nc2c3cccnc3c3ncccc3c2[nH]1
> 10 µM: IC50 (second compound 0.0316 µM) | IC50 (second compound 0.1 µM) | IC50 (second compound 0.316 µM) | IC50 (second compound 1 µM) | IC50 (second compound 3.16 µM) | IC50 (second compound 10 µM)
inactive: viability, T/C [1] 117% | viability, T/C [2] 126% | viability, T/C [3] 95.3% | viability, T/C [4] 81.9% | viability, T/C [5] 82.1% | viability, T/C [6] 75.3% | viability, T/C [7] 104% | viability, T/C [8] 122% | viability, T/C [9] 98.5% | viability, T/C [10] 80.1% | viability, T/C [11] 61.3% | viability, T/C [12] 62.1% | viability, T/C [13] 82.3% | viability, T/C [14] 95.4% | viability, T/C [15] 121% | viability, T/C [16] 78.6% | viability, T/C [17] 72.9% | viability, T/C [18] 50.6% | viability, T/C [19] 109% | viability, T/C [20] 98.6% | viability, T/C [21] 109% | viability, T/C [22] 70.2% | viability, T/C [23] 69.9% | viability, T/C [24] 51.9% | viability, T/C [25] 96.3% | viability, T/C [26] 72.7% | viability, T/C [27] 78.3% | viability, T/C [28] 68.2% | viability, T/C [29] 62.4% | viability, T/C [30] 72.9% | viability, T/C [31] 47% | viability, T/C [32] 79.9% | viability, T/C [33] 60.7% | viability, T/C [34] 51.4% | viability, T/C [35] 44% | viability, T/C [36] 78.1%

C=CC(=O)N1CCN(c2nc(=O)n(-c3c(C)ccnc3C(C)C)c3nc(-c4c(O)cccc4F)c(F)cc23)C(C)C1 (stereo not drawn) + Cc1[nH]c2ccc(F)cc2c1-c1nc2c3cccnc3c3ncccc3c2[nH]1
inactive: viability, T/C [1] 80.3% | viability, T/C [2] 88.6% | viability, T/C [3] 65.3% | viability, T/C [4] 81.8% | viability, T/C [5] 90.9% | viability, T/C [6] 71.1% | viability, T/C [7] 130% | viability, T/C [8] 96.3% | viability, T/C [9] 104% | viability, T/C [10] 89.7% | viability, T/C [11] 81.4% | viability, T/C [12] 82.2% | viability, T/C [13] 76.3% | viability, T/C [14] 95.4% | viability, T/C [15] 62.8% | viability, T/C [16] 73% | viability, T/C [17] 74.7% | viability, T/C [18] 97.5% | viability, T/C [19] 97.3% | viability, T/C [20] 75.4% | viability, T/C [21] 94.8% | viability, T/C [22] 85.8% | viability, T/C [23] 79.3% | viability, T/C [24] 69.3% | viability, T/C [25] 59.6% | viability, T/C [26] 73.6% | viability, T/C [27] 79.5% | viability, T/C [28] 46.4% | viability, T/C [29] 72.1% | viability, T/C [30] 53.5% | viability, T/C [31] 39.9% | viability, T/C [32] 44% | viability, T/C [33] 65.6% | viability, T/C [34] 62.8% | viability, T/C [35] 52.5% | viability, T/C [36] 80.4%
> 10 µM: IC50 (second compound 0.0316 µM) | IC50 (second compound 0.1 µM) | IC50 (second compound 0.316 µM) | IC50 (second compound 1 µM) | IC50 (second compound 3.16 µM)
< 0.0316 µM: IC50 (second compound 10 µM)

Source: PubChem BioAssay AID2060507 (Molecular Pharmacology Branch, DTP, NCI, 2025)
